# Results taken from patent US7053116B2, “Methods for protecting cells from amyloid toxicity and for inhibiting amyloid protein production” (The Salk Institute for Biological Studies, priority 2000, dated 2006).
# Like-named read-outs stand apart in the source and are kept apart here. No end group written: not given here.
# Experiments:
# [1] = test system: Aβ-induced MTT formazan exocytosis; experiment: Blocking of Aβ-induced MTT formazan exocytosis by amyloid-binding agents; assay type: cell-based
# Method: MTT formazan exocytosis is assessed by microscopic observation. The needle-like crystals on the surface of the cells incubated with MTT, which are easily visible under a light microscope, represent exocytosed MTT formazan (Liu et al. (1997) J. Neurochem. 69:581–593). The percentages of cells exocytosing MTT formazan were determined by counting 300 cells in multiple fields using the presence of needle-like formazan crystals on cell surface as an indicator of MTT formazan exocytosis. A cell is counted as exocytosing MTT formazan when several needle-like formazan crystals are clearly visible.
# The involvement of β-sheeted amyloid fibrils in generating this phenomenon is supported by the observation that amyloid-binding agents such as Congo red block 90% of the Aβ-induced MTT formazan exocytosis. Under denaturing conditions, non-amyloidogenic proteins such as insulin and glucagon also form protein fibrils with the same cross β structure as that in amyloid fibrils (Glenner et al., J. Histochem. Cytochem. 22:1141–1158 (1974) and Burke et al. Biochem. 11:2435–2439 (1972)). […] Therefore, the ability to enhance cellular MTT formazan exocytosis is a common property of protein fibrils having a cross β-pleated sheet structure. […]
# Hippocampal neurons [2] = experiment: Hippocampal neuronal cultures, assessment of neuronal viability
# Method: (§1) The cells were suspended in a serum-free medium and plated on polylysine-coated 24-well tissue culture plates (1×10^6 cells/ml). The serum-free medium used is a modified minimal essential medium containing 30 mM glucose, 2 mM glutamine, 1 mM pyruvate, penicillin (100 U/ml), streptomycin (100 μg/ml), and N1supplements (Sigma). After 3 days in culture, the neurons acquire long and extensively branched neurites. Half of the medium in each dish was then replaced with fresh medium, and test reagents (20 μM peptide solutions) were added. Neuron survival was assessed 48 hours after treatment. Neurons were judged to be viable by the intactness of their neurites and soma (absence of vacuoles and the ability to exclude trypan blue). Five fields (˜80 neurons/field) were scored in each culture. The number of viable neurons in untreated cultures was designated as 100% survival.
# B12 cells [3] = details: for ability to induce MTT formazan exocytosis (in words): peptide preparations
# Method: MTT reduction and MTT formazan exocytosis MTT reduction by cultured cells was performed in 96-well microtiter plates containing 100 μl of medium per well. Cells (about 10^4 cells per well) were plated in Dulbecco's modified Eagles's medium (DMEM) supplemented with 5% dialyzed fetal calf serum and incubated overnight before drug treatment. MTT reduction was started by adding 10 μl per well of a 2.5 mg/ml MTT stock in phosphate-buffered saline (PBS) and terminated by adding 100 μl of a solubilization solution containing 50% N,N′-dimethylformamide and 20% sodium dodecyl sulfate (SDS; pH 4.8). […] MTT reduction is determined the next day by determining absorbance at 570 nm with an automatic microtiter plate reader, using 630 nm as the reference wavelength.
# MTT reduction by living cells is initially observed as intracellular formazan granules, and needle-like formazan crystals begin to appear on the cell surface after about 30 min of MTT reduction.
# Amyloid peptide-induced MTT formazan exocytosis was determined with B12 cells, as described herein. B12 cells on 35 mm dishes were treated with 10 μM for 16 hr at 37° C., followed by 30 min MTT reduction. The percentage of cells exocytosing MTT formazan with morphology similar to that induced by Aβ was then determined.
# Primary astrocytes = experiment: Astrocyte culture, quantitation of secreted cytokines (ELISA); assay type: cell-based, rat; details: astrocyte conditioned media; 10 μM peptide for 12 hr; mean ±S.E.M.
# Method: Astrocyte culture and quantitation of secreted cytokines Primary astrocytes were prepared from the cortices of 2-day-old Sprague-Dawley rat pups according the method of Levison and McCarthy (Culturing Nerve Cells in: G. Banker, and K. Goslin (eds.), MIT Press, Cambridge, Mass. 1991, pp. 309–336). The dissected cortices were dissociated enzymatically with trypsin and mechanically by passing through a fine pipette. The cells were cultured in α-MEM (Life Technologies, MD) containing 10% fetal bovine serum and antibiotics. After 11 days in culture, the primary cells were replated at a density of 10,000 cells/cm^2 and grown until confluent. At least 24 hr before treatment, the cells were washed twice with PBS and then incubated with serum-free α-MEM containing N2 supplements (Life Technologies, MD).
# Cytokine Measurements For IL-1β and TNF-α measurements, 7.5×10^4 cells/well were plated in a 48-well tissue culture plate. After 48 hr of incubation in serum-free α-MEM containing N2 supplements, the cells were treated with 10 μM of various amyloid or non-amyloidogenic peptides for 12 hr. Conditioned media from duplicate wells for each sample were collected and stored at −80° C. until use. Cytokine levels in the conditioned media were determined by ELISA kits from R&D systems and performed according to the manufacturer's protocols.
# B12 cells [4] = details: cited from earlier work; for enhancement of MTT formazan exocytosis: B12 cells, Liu and Schubert 1997; for induction of MTT formazan exocytosis by protein fibrils: fibrils formed under denaturing conditions, Liu and Schubert 1998
# Hippocampal neurons [5] = test system: Hippocampal neurons
# Method: as §1
# astrocytes = experiment: Astrocyte activation indicated by morphological changes; assay type: cell-based, rat; details: peptide preparations
# Method: The dissected cortices were dissociated enzymatically with trypsin and mechanically by passing through a fine pipette. The cells were cultured in α-MEM (Life Technologies, MD) containing 10% fetal bovine serum and antibiotics. After 11 days in culture, the primary cells were replated at a density of 10,000 cells/cm^2 and grown until confluent. At least 24 hr before treatment, the cells were washed twice with PBS and then incubated with serum-free α-MEM containing N2 supplements (Life Technologies, MD).
compound,measurement,setting,value
Nc1c(/N=N/c2ccc(-c3ccc(/N=N/c4cc(S(=O)(=O)O)c5ccccc5c4N)cc3)cc2)cc(S(=O)(=O)O)c2ccccc12 [Congo red],block of the Aβ-induced MTT formazan exocytosis,[1],90%
CC[C@H](C)[C@H](NC(=O)[C@H](C)NC(=O)CNC(=O)[C@H](Cc1ccccc1)NC(=O)[C@H](CC(N)=O)NC(=O)[C@H](CC(N)=O)NC(=O)[C@H](CO)NC(=O)[C@H](CO)NC(=O)[C@H](Cc1c[nH]cn1)NC(=O)[C@@H](NC(=O)[C@H](CC(C)C)NC(=O)[C@H](Cc1ccccc1)NC(=O)[C@H](CC(N)=O)NC(=O)[C@H](C)NC(=O)[C@H](CC(C)C)NC(=O)[C@H](CCCNC(=N)N)NC(=O)[C@H](CCC(N)=O)NC(=O)[C@@H](NC(=O)[C@H](C)NC(=O)[C@@H]1CSSC[C@H](NC(=O)[C@@H](N)CCCCN)C(=O)N[C@@H](CC(N)=O)C(=O)N[C@@H]([C@@H](C)O)C(=O)N[C@@H](C)C(=O)N[C@@H]([C@@H](C)O)C(=O)N1)[C@@H](C)O)C(C)C)C(=O)N[C@@H](CC(C)C)C(=O)N[C@@H](CO)C(=O)N[C@@H](CO)C(=O)N[C@H](C(=O)N[C@@H](CC(N)=O)C(=O)N[C@H](C(=O)NCC(=O)N[C@@H](CO)C(=O)N[C@@H](CC(N)=O)C(=O)N[C@H](C(=O)N[C@@H](Cc1ccc(O)cc1)C(N)=O)[C@@H](C)O)C(C)C)[C@@H](C)O [Human amylin],neurotoxicity to rat hippocampal neurons (in words),Hippocampal neurons [2]; peptide preparations,kill rat hippocampal neurons
same,Viable Neurons (% of control),"Hippocampal neurons [2]; rat hippocampal neurons, 20 μM peptide solutions, 48 hours after treatment, mean ±S.E.M.",32 ± 7 % of control
same,MTT (%),"B12 cells [3]; percentage of B12 cells exocytosing MTT formazan, 10 μM for 16 hr at 37° C., followed by 30 min MTT reduction, mean ±S.E.M.",97 ± 1 %
CC(C)C[C@H](NC(=O)[C@H](CC(N)=O)NC(=O)[C@H](CC(N)=O)NC(=O)[C@H](CO)NC(=O)[C@H](CO)NC(=O)[C@H](CCCNC(=N)N)NC(=O)[C@@H](NC(=O)[C@H](CC(C)C)NC(=O)[C@H](Cc1ccccc1)NC(=O)[C@H](CC(N)=O)NC(=O)[C@H](C)NC(=O)[C@H](CC(C)C)NC(=O)[C@H](CCCNC(=N)N)NC(=O)[C@H](CCC(N)=O)NC(=O)[C@@H](NC(=O)[C@H](C)NC(=O)[C@@H]1CSSC[C@H](NC(=O)[C@@H](N)CCCCN)C(=O)N[C@@H](CC(N)=O)C(=O)N[C@@H]([C@@H](C)O)C(=O)N[C@@H](C)C(=O)N[C@@H]([C@@H](C)O)C(=O)N1)[C@@H](C)O)C(C)C)C(=O)NCC(=O)N1CCC[C@H]1C(=O)N[C@H](C(=O)N[C@@H](CC(C)C)C(=O)N1CCC[C@H]1C(=O)N1CCC[C@H]1C(=O)N[C@H](C(=O)N[C@@H](CC(N)=O)C(=O)N[C@H](C(=O)NCC(=O)N[C@@H](CO)C(=O)N[C@@H](CC(N)=O)C(=O)N[C@H](C(=O)N[C@@H](Cc1ccc(O)cc1)C(N)=O)[C@@H](C)O)C(C)C)[C@@H](C)O)C(C)C [Rat amylin],IL-1β,Primary astrocytes,46 ± 7 pg/mL
same,TNF-α,Primary astrocytes,48 ± 8 pg/mL
same,enhancement of MTT formazan exocytosis,B12 cells [4],do not enhance
same,neurotoxicity to rat hippocampal neurons (in words),Hippocampal neurons [5],not active
same,ability to induce MTT formazan exocytosis (in words),B12 cells [3],not active
same,astrocyte activation as indicated by the morphological changes of the astrocytes (in words),astrocytes,not active
Aβ1-28: nonfibrillogenic peptide,enhancement of MTT formazan exocytosis,B12 cells [4],do not enhance
"Aβ1-40: amyloid beta 1-40, 40 amino acid form of amyloid beta peptide; lot not specified",enhancement of MTT formazan exocytosis,B12 cells [4],dramatically enhance
same,ability to induce MTT formazan exocytosis (in words),B12 cells [3],variable among different manufacturer's lots
"Aβ17-40: nonfibrillogenic peptide (LVFFAEDVGSNKGAIIGLMVGGVV; Amyloid-beta protein 40; UniProt P05067 688-711, looked up, fragment)",enhancement of MTT formazan exocytosis,B12 cells [4],do not enhance
GSNKGAIIGLM [Aβ25–35],IL-1β,Primary astrocytes,754 ± 78 pg/mL
same,TNF-α,Primary astrocytes,350 ± 46 pg/mL
same,enhancement of MTT formazan exocytosis,B12 cells [4],dramatically enhance
same,ability to induce MTT formazan exocytosis (in words),B12 cells [3],always active
glucagon: non-amyloidogenic protein forming fibrils with cross β structure under denaturing conditions,induction of MTT formazan exocytosis by protein fibrils,B12 cells [4],induce MTT formazan exocytosis
insulin: non-amyloidogenic protein forming fibrils with cross β structure under denaturing conditions,induction of MTT formazan exocytosis by protein fibrils,B12 cells [4],induce MTT formazan exocytosis
